Measured values from US9115117B2, “Substituted piperidine compounds and their use as orexin receptor modulators” (JANSSEN PHARMACEUTICA NV, priority 2013, dated 2015).

Legend:
[1] = biological target: rat orexin 1 receptor (Rattus norvegicus, UniProt P56718); assay: Rat orexin 1 receptor radioligand binding; conditions: HEK293 cells stably expressing rat orexin 1 receptor; apparent Ki; read-out: rOX1 Ki
Experimental: After centrifugation (2K×G, 5 min at 4° C.), the supernatant was aspirated and the pellets frozen and stored at −80° C. […] Each cell pellet from a 15 cm plate was resuspended in 10 mL, stored on ice, and homogenized for 45 sec prior to addition to the reactions. Competition binding experiments in 96 well polypropylene plates were performed using [^3H]-(1-(5-(2-fluoro-phenyl)-2-methyl-thiazol-4-yl)-1-((S)-2-(5-phenyl-(1,3,4)oxadiazol-2-ylmethyl)-pyrrolidin-1-yl)-methanone) (Moraveck Corporation, specific activity=35.3 Ci/mmol), diluted to a 10 nM concentration in PBS (4 nM final). […] The final concentration of DMSO in the reactions is equal to or less than 0.1%. Total and nonspecific binding was determined in the absence and presence of 10 μM almorexant. The total volume of each reaction is 200 μL (20 μL of diluted compounds, 80 μL of [3H]-(1-(5-(2-fluoro-phenyl)-2-methyl-thiazol-4-yl)-1-((S)-2-(5-phenyl-(1,3,4)oxadiazol-2-ylmethyl)-pyrrolidin-1-yl)-methanone) diluted in PBS and 100 μL of the cell suspension). […] The plates were washed 3 times by aspirating 30 ml PBS through the plates. Plates were dried in 55° C. oven for 60 min, scintillation fluid was added, and the radioactivity was counted on a Topcount (Packard).

[2] = biological target: human orexin 2 receptor (Homo sapiens (Human), UniProt O43614); assay: Human orexin 2 receptor radioligand binding ([3H]-EMPA); conditions: HEK293 stably expressing human orexin 2 receptor; [3H]-EMPA; apparent Ki; read-out: hOX2 Ki
Chain of human orexin 2 receptor (O43614 whole entry): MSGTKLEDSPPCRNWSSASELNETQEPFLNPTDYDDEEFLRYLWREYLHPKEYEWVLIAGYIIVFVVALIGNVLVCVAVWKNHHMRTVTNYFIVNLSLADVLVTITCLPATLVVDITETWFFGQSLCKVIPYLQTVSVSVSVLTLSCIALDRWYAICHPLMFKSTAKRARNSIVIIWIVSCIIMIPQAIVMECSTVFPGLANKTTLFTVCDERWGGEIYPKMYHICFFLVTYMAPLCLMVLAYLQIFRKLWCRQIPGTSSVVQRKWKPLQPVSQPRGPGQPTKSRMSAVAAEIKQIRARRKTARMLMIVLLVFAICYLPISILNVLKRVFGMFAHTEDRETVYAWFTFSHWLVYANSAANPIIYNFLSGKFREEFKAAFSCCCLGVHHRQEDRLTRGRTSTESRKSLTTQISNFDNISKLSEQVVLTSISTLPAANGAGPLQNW
Experimental: After centrifugation (2K×G, 5 min at 4° C.), the supernatant was aspirated and the pellets frozen and stored at −80° C. […] Each cell pellet from a 15 cm plate was resuspended in 10 mL, stored on ice, and homogenized for 45 sec just prior to addition to the reactions. Competition binding experiments in 96 well polypropylene plates were performed using [^3H]-EMPA (Moraveck Corporation, specific activity=29.6 Ci/mmol), diluted to a 5 nM concentration in PBS (2 nM final concentration). […] The final concentration of DMSO in the reactions is equal to or less than 0.1%. Total and nonspecific binding was determined in the absence and presence of […]. The total volume of each reaction is 200 μL (20 μL of diluted compounds, 80 μL of [^3H]-EMPA diluted in PBS and 100 μL of the cell suspension).
The plates were washed 3 times by aspirating 30 ml PBS through the plates. Plates were dried in 55° C. oven for 60 min, scintillation fluid was added, and the radioactivity was counted on a Topcount (Packard).

Structure (SMILES) | Ki [1] [nM] | Ki [2] [nM]
COc1c(F)cccc1C(=O)N1CCC[C@@H](Nc2ccc(C(F)(F)F)cn2)[C@H]1C (racemic) [Example 54, (±)-cis-(3-fluoro-2-methoxyphenyl)(2-methyl-3-((5-(trifluoromethyl)pyridin-2-yl)amino)piperidin-1-yl)methanone] | 4500 | > 10000
CCOc1ccccc1C(=O)N1CCC[C@@H](Nc2ccc(C(F)(F)F)cn2)[C@H]1C (racemic) [Example 55, (±)-cis-(2-ethoxyphenyl)(2-methyl-3-((5-(trifluoromethyl)pyridin-2-yl)amino)piperidin-1-yl)methanone] | 1200 | > 10000
CCOc1ccccc1C(=O)N1CCC[C@@H](Nc2ccc(Br)cn2)[C@H]1C (racemic) [Example 59, (±)-cis-(3-(5-bromopyridin-2-yl)amino)-2-methylpiperidin-1-yl)(2-ethoxyphenyl)methanone] | 1800 | > 10000
C[C@@H]1[C@H](Nc2nc3cc(Cl)ccc3o2)CCCN1C(=O)c1ccccc1-n1nccn1 (racemic) [Example 60, (±)-cis-((2-(2H-1,2,3-triazol-2-yl)phenyl)(3-((5-chlorobenzo[d]oxazol-2-yl)amino)-2-methylpiperidin-1-yl)methanone] | > 10000 | > 10000
COc1c(F)cccc1C(=O)N1CCC[C@@H](Nc2nc3cc(Cl)ccc3o2)[C@H]1C (racemic) [Example 62, (±)-cis-(3-((5-chlorobenzo[d]oxazol-2-yl)amino)-2-methylpiperidin-1-yl)(3-fluoro-2-methoxyphenyl)methanone] | 1800 | 5700
COc1c(F)cccc1C(=O)N1CCC[C@@H](Nc2cnc3ccccc3n2)[C@H]1C (racemic) [Example 64, (±)-cis-(3-fluoro-2-methoxyphenyl)(2-methyl-3-(quinoxalin-2-ylamino)piperidin-1-yl)methanone] | 1100 | 1300
Cc1ccc(C(=O)N2CCC[C@H](Nc3ccc(C(F)(F)F)cn3)[C@H]2C)c(-n2nccn2)c1 [Example 15, (4-methyl-2-(2H-1,2,3-triazol-2-yl)phenyl)((2R,3S)-2-methyl-3-((5-(trifluoromethyl)pyridin-2-yl)amino)piperidin-1-yl)methanone] | 8200 | > 10000
C[C@H]1[C@H](Nc2ccc(F)cn2)CCCN1C(=O)c1ccccc1-n1nccn1 [Example 34, (2-(2H-1,2,3-triazol-2-yl)phenyl)((2S,3R)-3-((5-fluoropyridin-2-yl)amino)-2-methylpiperidin-1-yl)methanone] | 355 | 700
